In the NIST ThermoML archive (doi:10.1016/j.jct.2015.11.016):
± gives the expanded uncertainty stated by the source.

Columns and labels:
[1] = xn = mol fraction of the nth substance listed; conditions: 298.15 K, 100 kPa, Liquid, Vibrating tube method
[2] = 298.15 K; 101.33 kPa; Liquid; Vibrating tube method

CCCC[N+]1(C)CCCC1.N#CN=C=[N-] [1-butyl-1-methylpyrrolidinium dicyanamide] + c1ccccc1
mass density ([1]; x2 = 0.706): 964.75 ± 6.2 kg/m3

c1ccccc1 [benzene]
mass density [2]: 873.71 ± 2 kg/m3

CCCC[N+]1(C)CCCC1.N#CN=C=[N-] [1-butyl-1-methylpyrrolidinium dicyanamide] + CCCCCCCC
mass density ([1]; x2 = 0.01): 1012.4 ± 6.1 kg/m3

CCCC[N+]1(C)CCCC1.N#CN=C=[N-] [1-butyl-1-methylpyrrolidinium dicyanamide]
mass density [2]: 1014.47 ± 6 kg/m3

CCCCCCCC [octane]
mass density [2]: 698.86 ± 2 kg/m3

CCCCCCCCCC [decane]
mass density [2]: 726.15 ± 2 kg/m3
